Experimental data from patent US20220168307A1, “TREATMENT OF SMA” (Hoffmann-La Roche Inc., priority 2019, published 2022).
pIC50: −log10 of the molar value. “Also recorded” adds a separate entry of the source. Where two headings read alike, the source gives them in different places.

Assays:
[1] = target: T1, CYP2C9 (Homo sapiens, UniProt P11712); experiment: Time-dependent inhibition (IC50 shift) of CYP2C9 in human liver microsomes; format: in vitro ADME; conditions: risdiplam up to 12.5 μM
Procedure: (§1) Donors CMV negative for serology are unm
(§2) All incubations were conducted in duplicate.
(§3) % remaining=(C+I/C^−I)*100

[2] = target: T2, CYP2D6 (Homo sapiens, UniProt P10635); experiment: Time-dependent inhibition (IC50 shift) of CYP2D6 in human liver microsomes; format: in vitro ADME; conditions: risdiplam up to 12.5 μM
T2 sequence (P10635 whole entry): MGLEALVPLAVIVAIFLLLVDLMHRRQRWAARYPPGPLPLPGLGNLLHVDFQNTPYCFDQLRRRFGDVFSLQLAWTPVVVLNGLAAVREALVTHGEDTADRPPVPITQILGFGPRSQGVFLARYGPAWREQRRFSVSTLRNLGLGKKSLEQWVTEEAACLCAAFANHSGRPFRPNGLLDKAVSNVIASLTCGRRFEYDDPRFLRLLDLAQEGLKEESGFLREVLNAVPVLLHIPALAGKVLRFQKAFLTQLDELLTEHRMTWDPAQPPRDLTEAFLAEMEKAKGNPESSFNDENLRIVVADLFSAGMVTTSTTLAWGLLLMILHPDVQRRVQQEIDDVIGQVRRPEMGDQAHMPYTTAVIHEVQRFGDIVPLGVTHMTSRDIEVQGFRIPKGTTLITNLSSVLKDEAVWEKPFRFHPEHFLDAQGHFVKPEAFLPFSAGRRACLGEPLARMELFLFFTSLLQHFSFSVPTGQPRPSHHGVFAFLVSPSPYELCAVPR
Procedure: as §1, §2, §3

[3] = target: CYP3A4 (Homo sapiens, UniProt P08684); conditions: microsomes, pH 7.4
CYP3A4 (Homo sapiens, UniProt P08684), sequence (P08684 whole entry): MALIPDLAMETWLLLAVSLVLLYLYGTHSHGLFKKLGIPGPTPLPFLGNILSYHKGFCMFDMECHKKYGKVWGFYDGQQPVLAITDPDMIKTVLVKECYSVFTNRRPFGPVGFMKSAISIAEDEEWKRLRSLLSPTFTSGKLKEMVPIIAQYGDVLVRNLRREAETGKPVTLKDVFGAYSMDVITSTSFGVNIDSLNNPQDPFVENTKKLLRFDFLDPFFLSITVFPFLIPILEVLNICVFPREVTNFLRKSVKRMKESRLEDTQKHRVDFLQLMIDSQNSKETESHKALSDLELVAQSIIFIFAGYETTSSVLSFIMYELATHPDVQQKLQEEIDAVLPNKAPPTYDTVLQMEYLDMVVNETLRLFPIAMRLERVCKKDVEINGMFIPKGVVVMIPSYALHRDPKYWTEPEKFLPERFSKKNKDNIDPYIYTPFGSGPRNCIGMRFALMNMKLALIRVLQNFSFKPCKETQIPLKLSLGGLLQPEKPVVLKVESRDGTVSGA
Procedure: as §1, §2
(§4) The first order rate constant for inactivation (λ or kabs) was estimated from slopes of the linear portion of the curves.

[4] = tested on: CYP3A4; conditions: human, pH 7.4
Procedure: as §1, §2, §4

[5] = Risdiplam treatment of patients with SMA: safety and exposure; format: in vivo, human
[6] = target: T2, CYP2D6
[7] = target: T3, CYP2B6 (Homo sapiens, UniProt P20813); experiment: in vitro; conditions: pooled human liver microsomes, pH 7.4, probe bupropion
T3 sequence (P20813 1-491): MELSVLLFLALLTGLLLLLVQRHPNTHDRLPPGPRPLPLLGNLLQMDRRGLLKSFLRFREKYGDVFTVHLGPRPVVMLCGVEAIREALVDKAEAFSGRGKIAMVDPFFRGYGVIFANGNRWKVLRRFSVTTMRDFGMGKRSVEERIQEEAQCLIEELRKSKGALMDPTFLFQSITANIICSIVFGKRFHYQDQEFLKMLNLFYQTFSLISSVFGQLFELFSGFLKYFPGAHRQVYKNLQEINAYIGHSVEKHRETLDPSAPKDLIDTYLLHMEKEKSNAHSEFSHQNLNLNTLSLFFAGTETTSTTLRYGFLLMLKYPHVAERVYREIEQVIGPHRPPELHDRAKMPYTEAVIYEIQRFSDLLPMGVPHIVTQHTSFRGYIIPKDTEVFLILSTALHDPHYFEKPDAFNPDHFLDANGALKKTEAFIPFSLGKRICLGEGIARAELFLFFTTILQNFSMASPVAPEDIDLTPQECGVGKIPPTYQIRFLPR

[8] = target: T4, CYP2C8 (Homo sapiens, UniProt P10632); experiment: in vitro; conditions: pooled human liver microsomes, pH 7.4, probe amodiaquine
T4 sequence (P10632 1-490): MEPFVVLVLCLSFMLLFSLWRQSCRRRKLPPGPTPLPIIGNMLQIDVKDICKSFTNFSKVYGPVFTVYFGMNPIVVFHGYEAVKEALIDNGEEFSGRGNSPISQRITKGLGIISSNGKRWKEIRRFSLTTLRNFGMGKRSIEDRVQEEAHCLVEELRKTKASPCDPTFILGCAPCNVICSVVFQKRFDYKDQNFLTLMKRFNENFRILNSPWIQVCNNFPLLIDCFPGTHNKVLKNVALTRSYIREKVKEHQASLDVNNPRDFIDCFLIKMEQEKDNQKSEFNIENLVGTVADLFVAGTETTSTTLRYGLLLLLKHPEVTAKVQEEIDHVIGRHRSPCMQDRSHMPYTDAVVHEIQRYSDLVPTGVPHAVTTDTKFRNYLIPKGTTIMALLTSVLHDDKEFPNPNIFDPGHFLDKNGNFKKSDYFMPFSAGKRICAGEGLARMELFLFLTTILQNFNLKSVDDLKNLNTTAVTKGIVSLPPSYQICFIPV

[9] = target: T5, CYP2C19 (Homo sapiens, UniProt P33261); experiment: in vitro; conditions: pooled human liver microsomes, pH 7.4, probe (S)-mephenytoin
T5 sequence (P33261 whole entry): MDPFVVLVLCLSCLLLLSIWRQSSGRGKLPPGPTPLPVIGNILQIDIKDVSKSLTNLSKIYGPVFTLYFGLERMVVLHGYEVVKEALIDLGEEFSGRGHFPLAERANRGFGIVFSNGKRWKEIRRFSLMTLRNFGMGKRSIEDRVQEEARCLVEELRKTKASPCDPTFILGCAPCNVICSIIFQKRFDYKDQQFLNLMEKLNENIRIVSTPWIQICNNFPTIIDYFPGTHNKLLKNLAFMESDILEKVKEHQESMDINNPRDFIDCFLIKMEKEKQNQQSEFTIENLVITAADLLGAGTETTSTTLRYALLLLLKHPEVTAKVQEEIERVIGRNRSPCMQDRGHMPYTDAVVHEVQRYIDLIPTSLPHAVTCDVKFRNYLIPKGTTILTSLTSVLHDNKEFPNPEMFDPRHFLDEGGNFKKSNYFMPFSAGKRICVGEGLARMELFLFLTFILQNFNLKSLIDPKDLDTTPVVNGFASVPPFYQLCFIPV

[10] = target: T2, CYP2D6; experiment: in vitro; conditions: pooled human liver microsomes, pH 7.4, probe dextromethorphan, % Control activity at, direct inhibition, substrate Dextromethorphan, concentration not given, duplicates
[11] = target: T3, CYP2B6; experiment: biochemical
[12] = target: T2, CYP2D6; experiment: biochemical
[13] = target: T1, CYP2C9; experiment: Direct inhibition of CYP2C9 (diclofenac) in human liver microsomes
[14] = target: T5, CYP2C19; experiment: Direct inhibition of CYP2C19 ((S)-mephenytoin) in human liver microsomes

T1 sequence (P11712 whole entry): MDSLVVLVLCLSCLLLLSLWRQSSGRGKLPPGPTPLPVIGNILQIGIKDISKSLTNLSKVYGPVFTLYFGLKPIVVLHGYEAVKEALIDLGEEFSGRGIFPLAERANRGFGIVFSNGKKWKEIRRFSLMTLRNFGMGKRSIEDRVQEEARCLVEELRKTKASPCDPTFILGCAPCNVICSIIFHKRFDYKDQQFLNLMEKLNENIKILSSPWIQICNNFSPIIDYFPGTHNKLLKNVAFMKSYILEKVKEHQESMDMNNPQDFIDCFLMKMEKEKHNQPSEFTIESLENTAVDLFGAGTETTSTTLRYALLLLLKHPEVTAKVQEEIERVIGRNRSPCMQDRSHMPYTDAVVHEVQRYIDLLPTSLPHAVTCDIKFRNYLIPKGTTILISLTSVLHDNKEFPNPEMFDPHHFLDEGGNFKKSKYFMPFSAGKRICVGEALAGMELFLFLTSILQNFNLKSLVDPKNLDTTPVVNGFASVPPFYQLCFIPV

Question: With `Cc1cn2nc(-c3cc(=O)n4cc(N5CCNC6(CC6)C5)ccc4n3)cc(C)c2n1` [risdiplam, 7-(4,7-diazaspiro[2.5]octan-7-yl)-2-(2,8-dimethylimidazo[1,2-b]pyridazin-6-yl)pyrido[1,2-a]pyrimidin-4-one] as the compound, how does the “time-dependent inhibition (in words)” value [1] read?
Answer: did not show any significant reversible or time-dependent inhibition; also recorded: No significant reversible or time-dependent inhibition; also recorded: No significant time-dependent inhibition; also recorded: low potential to cause direct or time-dependent inhibition

Question: And the “time-dependent inhibition (in words)” value [2]?
Answer: did not show any significant reversible or time-dependent inhibition; also recorded: No significant reversible or time-dependent inhibition; also recorded: No significant time-dependent inhibition; also recorded: low potential to cause direct or time-dependent inhibition

Question: And the “Percent CYP3A4 activity remaining” value ([3]; 0 h, 0.1 μM)?
Answer: 100%

Question: What about the “Percent CYP3A4 activity remaining” value ([3]; 0 h, 0.2 μM) of the same compound?
Answer: 100%

Question: What about the “Percent CYP3A4 activity remaining” value ([3]; 0 h, 0.5 μM) of the same compound?
Answer: 100%

Question: What about the “Percent CYP3A4 activity remaining” value ([3]; 0 h, 1.3 μM) of the same compound?
Answer: 100%

Question: What about the “Percent CYP3A4 activity remaining” value ([3]; 0 h, 3.2 μM) of the same compound?
Answer: 100%

Question: And the “Percent CYP3A4 activity remaining” value ([3]; 0 h, 8 μM)?
Answer: 100%

Question: And the “Percent CYP3A4 activity remaining” value ([3]; 0 h, 12.5 μM)?
Answer: 100%

Question: What about the “Percent CYP3A4 activity remaining” value ([3]; 4 min, 0.1 μM) of the same compound?
Answer: 90%

Question: What about the “Percent CYP3A4 activity remaining” value ([3]; 4 min, 0.2 μM) of the same compound?
Answer: 90%

Question: And the “Percent CYP3A4 activity remaining” value ([3]; 4 min, 0.5 μM)?
Answer: 87%

Question: What about the “Percent CYP3A4 activity remaining” value ([3]; 4 min, 1.3 μM) of the same compound?
Answer: 82%

Question: What about the “Percent CYP3A4 activity remaining” value ([3]; 4 min, 3.2 μM) of the same compound?
Answer: 89%

Question: And the “Percent CYP3A4 activity remaining” value ([3]; 4 min, 8 μM)?
Answer: 76%

Question: What about the “Percent CYP3A4 activity remaining” value ([3]; 4 min, 12.5 μM) of the same compound?
Answer: 62%

Question: What about the “Percent CYP3A4 activity remaining” value ([3]; 0.25 h, 0.1 μM) of the same compound?
Answer: 80%

Question: And the “Percent CYP3A4 activity remaining” value ([3]; 0.25 h, 0.2 μM)?
Answer: 80%

Question: And the “Percent CYP3A4 activity remaining” value ([3]; 0.25 h, 0.5 μM)?
Answer: 77%

Question: What about the “Percent CYP3A4 activity remaining” value ([3]; 0.25 h, 1.3 μM) of the same compound?
Answer: 71%

Question: And the “Percent CYP3A4 activity remaining” value ([3]; 0.25 h, 3.2 μM)?
Answer: 62%

Question: And the “Percent CYP3A4 activity remaining” value ([3]; 0.25 h, 8 μM)?
Answer: 41%

Question: And the “Percent CYP3A4 activity remaining” value ([3]; 0.25 h, 12.5 μM)?
Answer: 29%

Question: And the “Percent CYP3A4 activity remaining” value ([3]; 0.5 h, 0.1 μM)?
Answer: 78%

Question: And the “Percent CYP3A4 activity remaining” value ([3]; 0.5 h, 0.2 μM)?
Answer: 78%

Question: What about the “Percent CYP3A4 activity remaining” value ([3]; 0.5 h, 0.5 μM) of the same compound?
Answer: 75%

Question: What about the “Percent CYP3A4 activity remaining” value ([3]; 0.5 h, 1.3 μM) of the same compound?
Answer: 65%

Question: What about the “Percent CYP3A4 activity remaining” value ([3]; 0.5 h, 3.2 μM) of the same compound?
Answer: 49%

Question: What about the “Percent CYP3A4 activity remaining” value ([3]; 0.5 h, 8 μM) of the same compound?
Answer: 25%

Question: What about the “Percent CYP3A4 activity remaining” value ([3]; 0.5 h, 12.5 μM) of the same compound?
Answer: 17%

Question: And the “Percent CYP3A4 activity remaining” value ([3]; 0.75 h, 0.1 μM)?
Answer: 72%

Question: What about the “Percent CYP3A4 activity remaining” value ([3]; 0.75 h, 0.2 μM) of the same compound?
Answer: 72%

Question: And the “Percent CYP3A4 activity remaining” value ([3]; 0.75 h, 0.5 μM)?
Answer: 68%

Question: And the “Percent CYP3A4 activity remaining” value ([3]; 0.75 h, 1.3 μM)?
Answer: 55%

Question: What about the “Percent CYP3A4 activity remaining” value ([3]; 0.75 h, 3.2 μM) of the same compound?
Answer: 39%

Question: And the “Percent CYP3A4 activity remaining” value ([3]; 0.75 h, 8 μM)?
Answer: 19%

Question: What about the “Percent CYP3A4 activity remaining” value ([3]; 0.75 h, 12.5 μM) of the same compound?
Answer: 13%

Question: What about the “Percent CYP3A4 activity remaining” value ([3]; 1 h, 0.1 μM) of the same compound?
Answer: 65%

Question: And the “Percent CYP3A4 activity remaining” value ([3]; 1 h, 0.2 μM)?
Answer: 65%

Question: And the “Percent CYP3A4 activity remaining” value ([3]; 1 h, 0.5 μM)?
Answer: 59%

Question: And the “Percent CYP3A4 activity remaining” value ([3]; 1 h, 1.3 μM)?
Answer: 48%

Question: What about the “Percent CYP3A4 activity remaining” value ([3]; 1 h, 3.2 μM) of the same compound?
Answer: 36%

Question: What about the “Percent CYP3A4 activity remaining” value ([3]; 1 h, 8 μM) of the same compound?
Answer: 15%

Question: And the “Percent CYP3A4 activity remaining” value ([3]; 1 h, 12.5 μM)?
Answer: 10%

Question: What about the KI [4] of the same compound?
Answer: 13 µM

Question: And the “safety and tolerability (in words)” value ([5]; 5 mg risdiplam, more than 1 year of treatment, patients with SMA)?
Answer: safe and well tolerated

Question: What about the AUC ([5]; human, in vivo, SMA patients, steady state, read-out: mean AUCtau at steady state (therapeutic exposure observed in SMA patients)) of the same compound?
Answer: 2000 ng·h/mL

Question: And the “% Control activity at” value ([6]; direct inhibition, substrate Dextromethorphan, concentration not given, duplicates)?
Answer: 95%

Question: And the “reversible (direct) inhibition (in words)” value ([6]; risdiplam up to 12.5 μM)?
Answer: did not show any significant reversible or time-dependent inhibition; also recorded: No significant reversible or time-dependent inhibition; also recorded: No significant reversible inhibition; also recorded: low potential to cause direct or time-dependent inhibition

Question: What about the activity [7] of the same compound?
Answer: 88%

Question: What about the activity [8] of the same compound?
Answer: 93%

Question: What about the activity [9] of the same compound?
Answer: 102%

Question: And the activity [10]?
Answer: 97%

Question: And the pIC50 [11]?
Answer: < 4.90

Question: What about the pIC50 [12] of the same compound?
Answer: < 4.90

Question: And the “% Control activity at” value ([13]; direct inhibition, substrate Diclofenac, concentration not given, duplicates)?
Answer: 82%

Question: What about the “reversible (direct) inhibition (in words)” value ([13]; risdiplam up to 12.5 μM) of the same compound?
Answer: did not show any significant reversible or time-dependent inhibition; also recorded: No significant reversible or time-dependent inhibition; also recorded: No significant reversible inhibition; also recorded: low potential to cause direct or time-dependent inhibition

Question: What about the “% Control activity at” value ([14]; direct inhibition, substrate (S)-Mephenytoin, concentration not given, duplicates) of the same compound?
Answer: 97%

Question: What about the “reversible (direct) inhibition (in words)” value ([14]; risdiplam up to 12.5 μM) of the same compound?
Answer: did not show any significant reversible or time-dependent inhibition; also recorded: No significant reversible or time-dependent inhibition; also recorded: No significant reversible inhibition; also recorded: low potential to cause direct or time-dependent inhibition
